The text below walks through data of PubChem BioAssay AID488890 (Southern Research Specialized Biocontainment Screening …, 2010).

Results filed as inconclusive are left out. The source made the active and inactive calls. The rule behind the calls is not given here.

This assay relates to Mycobacterium tuberculosis non-replicating, growth inhibition. The experiment in a line: growth inhibition of non-replicating M. tuberculosis (AID 488890).
As usually defined, the IC50 is the concentration that inhibits the measured activity by half. Consider `O=C(Nc1nnc(COc2ccc(Cl)cc2)s1)c1ccco1`, for which the IC50 was 21.4 µM (inactive).

On to `O=c1c2cc(Cl)ccc2nc(-c2ccc([N+](=O)[O-])cc2)n1O`, for which the IC50 was 2.2 µM.

With `Cc1cc(C)n2nc(N)c(N=Nc3ccccc3)c2n1`, the IC50 was 5.87 µM.

Consider `Cn1cccc1/C=N/NC(=O)c1ccncc1`, for which the IC50 was 1.96 µM.

With `O=C(OCc1nnc(-c2ccccc2)o1)c1ccc(Br)o1`, the IC50 was 9.14 µM.

In the case of `O=C(COc1ccccc1)NC1CCCCC1`, the IC50 was 0.61 µM.

With `COCCNC(=O)c1cc2cc(Cl)cc(Cl)c2oc1=O`, the IC50 was 3.67 µM.

Consider `COC(=O)c1ccc(N2CCN(CCNC(=O)Nc3ccc(OC)cc3)CC2)cc1`, for which the IC50 is 6.13 µM.

`CCOC(=O)CNC(=O)CNC(=O)c1nn(-c2ccc(OC)c(Cl)c2)c(=O)c2ccccc12`: the IC50 is 29.1 µM (inactive).

As to `CCC(=O)N1CCN(c2cc3c(cc2F)c(=O)c(C(=O)O)cn3CC)CC1`, the IC50 is 7.67 µM.

On to `Cc1ccc(-n2sc3ccccc3c2=O)cc1`, for which the IC50 is 14.3 µM (inactive).

On to `O=C1Nc2cc(C(=O)NCCCN3CCOCC3)ccc2S/C1=C/c1cccc(Cl)c1`, for which the IC50 is 20.8 µM (inactive).

Consider `NC(=O)CN1CCN(C2CC(=O)N(CCc3ccccc3)C2=O)CC1` (centres undefined), for which the IC50 is 19.9 µM (inactive).

As for `S=c1c2c(nc3nc[nH]n13)CCC2`, the IC50 was 4.68 µM.

For the compound `N#Cc1cc(N)ccc1-n1cccc1`, the IC50 was 6.15 µM.

For the compound `O=C(Nc1ncccn1)c1ccc([N+](=O)[O-])o1`, the IC50 was 8.49 µM.

For `CCS(=O)(=O)c1ncc(Cl)c(C(=O)Nc2ccc(C)cc2)n1`, the IC50 was 4.64 µM.

Take `CCOC(=O)c1cc(-c2c(Cl)cccc2Cl)no1`: the IC50 is 2.22 µM.

As for `COc1ccc(OCCSc2nnc(Cc3cccc4ccccc34)n2N)cc1`, the IC50 is 23.6 µM (inactive).

Turning to `CCOC(=O)C1CCN(Cc2ccc(-c3ccccc3)cc2)CC1`, the IC50 was 44 µM (inactive).

As for `Nc1ccc2c(c1)oc1ccccc12`, the IC50 was 2.05 µM.

Consider `COc1ccc(C(=O)C(CN2CCCC2)c2ccccc2)cc1` (centres undefined), for which the IC50 was 5.58 µM.

As to `O=[N+]([O-])c1cc(Cl)cc(/C=N/Nc2nc3ccccc3s2)c1O`, the IC50 was 1.8 µM.

For the compound `N=C1S/C(=C\c2ccco2)C(=O)N1c1nccs1`, the IC50 is 3.04 µM.

With `CCC(=O)c1ccc(OC(=O)c2ccc(Br)o2)cc1`, the IC50 was 9.81 µM.

For the compound `Cc1cc(C(=O)COc2cccc3cccnc23)c(C)n1C`, the IC50 is 5.1 µM.

As for `O=C(NCc1ccccc1)c1cc2ccccc2oc1=O`, the IC50 was 43.8 µM (inactive).

For `Cn1cnc([N+](=O)[O-])c1S(=O)(=O)c1cccc(Cl)c1`, the IC50 is 4.5 µM.

`O=C(Nc1cccnc1)c1ccc(-c2ccc(Cl)cc2)o1`: the IC50 is 5.13 µM.

As to `Nc1cccn2c(-c3ccc(Cl)cc3)cnc12`, the IC50 is 8.34 µM.

For the compound `CCCOc1ccc(C(=O)NNC(=S)NC(=O)c2cccs2)cc1`, the IC50 was 0.46 µM.

As for `CCCCCn1c(=O)c(C(=O)Nc2nc3ccccc3[nH]2)c(O)c2ccccc21`, the IC50 is 1.9 µM.

As to `CCC(=O)c1ccc(OCc2ccc(C(=O)OC)cc2)cc1`, the IC50 is 10.8 µM (inactive).

In the case of `CCCN(CCC)CCNC(=O)c1cc2c(-c3ccc(Cl)cc3)nn(C)c2s1`, the IC50 is 22.5 µM (inactive).

For `Cc1ccn2c(Nc3ccccc3)c(-c3ccccn3)nc2c1`, the IC50 is 10.4 µM (inactive).

Turning to `O=[N+]([O-])c1ccc(Nc2ccccc2)c2nonc12`, the IC50 is 2.87 µM.

Regarding `CS(=O)(=O)Nc1cccc2cccnc12`, the IC50 was 21.4 µM (inactive).

Regarding `CC1(C)Oc2ccc(NC(=O)C3COc4ccccc4O3)cc2O1` (centres undefined), the IC50 was 12.9 µM (inactive).

As for `Cn1[nH]c(-c2ccccc2)c(/C=N/O)c1=O`, the IC50 was 8.99 µM.

For the compound `COC(=O)COc1ccc(S(=O)(=O)NCc2ccc3c(c2)OCO3)cc1`, the IC50 is 14.3 µM (inactive).

As for `Cc1cccc(C)c1NC(=O)COC(=O)CCc1c[nH]c2ccccc12`, the IC50 was 19.3 µM (inactive).

Take `Cc1ccc(-c2nnc(Cc3ccc([N+](=O)[O-])cc3)o2)cc1`: the IC50 was 1.77 µM.

For `CC(CN1CCOCC1)OC(=O)c1ccc(Br)cc1` (centres undefined), the IC50 is 1.51 µM.

Consider `CS(=O)(=O)c1sc(C#N)c2c1C(=O)CC(c1ccccc1)C2` (centres undefined), for which the IC50 is 0.82 µM.

On to `CCS(=O)(=O)c1ncc(Cl)c(C(=O)Nc2ccc(S(=O)(=O)N3CCC(C)CC3)cc2)n1`, for which the IC50 was 9.7 µM.

Regarding `Cn1cccc1/C=N\NC(=O)C1COc2ccccc2O1` (centres undefined), the IC50 is 13.2 µM (inactive).

For `Nc1nc2ccccc2n1C(=O)c1ccc(F)cc1`, the IC50 was 13.2 µM (inactive).

As to `COc1ccc2c(c1)sc(=N)n2C`, the IC50 was 19.3 µM (inactive).

Take `O=c1c2ccc(Cl)cc2nc(-c2ccc([N+](=O)[O-])cc2)n1O`: the IC50 was 1.3 µM.

With `Cc1[nH]n2c(=O)c3c(nc2c1-c1ccccc1)CCCC3`, the IC50 was 13.6 µM (inactive).

Take `Cc1nnsc1C(=O)N/N=C/c1ccc2ccccc2c1O`: the IC50 is 0.48 µM.

As to `O=C(CCC(=O)Nc1ccc(Cl)cc1Cl)N/N=C/c1ccc([N+](=O)[O-])o1`, the IC50 is 2.18 µM.

With `O=C(Nc1ccccc1)c1nnsc1S(=O)c1ccc(Cl)cc1` (centres undefined), the IC50 was 0.34 µM.

`CC(=O)c1ccc(-n2cc(-c3ccc(C(C)(C)C)cc3)[n+]3c2SCCC3)cc1`: the IC50 was 6.18 µM.

As for `Cn1c(-c2cccc([N+](=O)[O-])c2)cnc1NCc1cccc(F)c1`, the IC50 was 29.3 µM (inactive).

With `CC(C)c1nnc(NC(=O)c2sc3ccccc3c2Cl)s1`, the IC50 was 9.84 µM.

`O=C(CCC1CCCC1)c1c(O)c2ccccc2oc1=O`: the IC50 is 1.93 µM.

`Nc1c(C(=O)NC2CCCCC2)nsc1C(=O)OCC(=O)NC1CCCCC1`: the IC50 was 3.27 µM.

For `O=C1CSC(=S)N1Cc1cccnc1`, the IC50 is 6.18 µM.

`O=S(=O)(Nc1nccs1)c1ccc(NCc2cc(Br)cc(Br)c2O)cc1`: the IC50 was 10.7 µM (inactive).

Turning to `COC(=O)CCC(=O)Nc1sc(Cc2ccccc2)c(C)c1C(N)=O`, the IC50 was 13.6 µM (inactive).

For `CC1=NN(C(=O)c2csc(C)c2)C(O)(C(F)(F)F)C1` (centres undefined), the IC50 was 0.49 µM.

As for `CC(C)OC(=O)COc1ccc(-c2ccccc2)cc1`, the IC50 is 3.25 µM.

Turning to `Cc1ccnc(NC(=O)c2cc3ccccc3o2)c1`, the IC50 is 4.74 µM.

With `CCOC(=O)Cc1ccc(NCc2ccc(Cl)cc2)cc1`, the IC50 was 10.8 µM (inactive).

Take `CC(C)C[C@H]1CN=C(Nc2ccccc2)N1CCCC1CCCCC1`: the IC50 was 8.79 µM.

Take `COc1ccc(NC(=O)COc2ccc3c(c2)CCC3)cc1`: the IC50 is 4.54 µM.

Turning to `CCCC(O)(CCC)C(=O)NNc1ccc(C)cc1`, the IC50 was 5.94 µM.

In the case of `Cc1[nH]c2ccccc2c1C(=O)C(C)OC(=O)c1ccc([N+](=O)[O-])o1` (centres undefined), the IC50 was 1.07 µM.

As to `COc1ccc(C(C#N)=C2C=CC(=NO)C=C2)cc1`, the IC50 is 16 µM (inactive).

`COc1cc(/C=C2/C(=O)NN(c3cccc(F)c3)C2=O)ccc1OC(=O)c1ccco1`: the IC50 is 5.04 µM.

On to `Cc1ccc(CCC(=O)Nc2ccc(C)c(C)c2)o1`, for which the IC50 was 8.63 µM.

As for `Cc1cc2ncn(/N=C/c3ccc([N+](=O)[O-])s3)c2cc1C`, the IC50 is 1.09 µM.

Consider `Cc1ccc2nc(-c3ccccn3)c(NC3CCCC3)n2c1`, for which the IC50 was 12.5 µM (inactive).
